# Test results from patent publication US20140294856A1, “COMBINATION TREATMENT COMPRISING A HDAC6 INHIBITOR AND AN AKT INHIBITOR” (priority 2011, published 2014).
# Read-outs that look alike come from different tables or passages of the source.
# How the values were obtained:
# [1] = test system: HCT116 cells; assay: Combination studies, SRB assay, combination index (CalcuSyn); assay type: cell-based, human
# [2] = test system: CHO cells deficient in DNA repair; assay: Growth inhibition in cell lines deficient in DNA repair machinery; assay type: cell-based
# [3] = test system: A549 cells; assay: Impact of BSO (GSH depletion) on growth inhibition, SRB assay; assay type: cell-based; details: 10 μM BSO for 24 hours
# [4] = target: T1, ABCG2 (Homo sapiens, UniProt Q9UNQ0)
# T1 sequence (Q9UNQ0 1-655): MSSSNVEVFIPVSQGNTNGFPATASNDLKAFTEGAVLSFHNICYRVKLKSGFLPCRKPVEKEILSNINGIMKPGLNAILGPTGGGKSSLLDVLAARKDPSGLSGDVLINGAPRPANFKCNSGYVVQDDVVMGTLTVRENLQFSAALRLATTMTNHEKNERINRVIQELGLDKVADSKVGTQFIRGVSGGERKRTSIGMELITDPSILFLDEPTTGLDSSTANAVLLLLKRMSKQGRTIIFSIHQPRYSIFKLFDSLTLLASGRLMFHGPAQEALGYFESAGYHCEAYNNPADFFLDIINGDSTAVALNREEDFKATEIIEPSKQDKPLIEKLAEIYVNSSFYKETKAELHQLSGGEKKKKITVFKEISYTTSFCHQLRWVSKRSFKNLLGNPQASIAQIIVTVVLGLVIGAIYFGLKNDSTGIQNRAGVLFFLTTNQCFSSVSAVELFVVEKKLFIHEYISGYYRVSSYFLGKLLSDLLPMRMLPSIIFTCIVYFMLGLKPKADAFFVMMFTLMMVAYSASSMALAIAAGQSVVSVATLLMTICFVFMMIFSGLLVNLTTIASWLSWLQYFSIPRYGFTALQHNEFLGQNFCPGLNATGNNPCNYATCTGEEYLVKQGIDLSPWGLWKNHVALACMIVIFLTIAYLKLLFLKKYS
# [5] = target: P-gp (Homo sapiens, UniProt P08183); details: mouse
# P-gp, sequence (P08183 whole entry): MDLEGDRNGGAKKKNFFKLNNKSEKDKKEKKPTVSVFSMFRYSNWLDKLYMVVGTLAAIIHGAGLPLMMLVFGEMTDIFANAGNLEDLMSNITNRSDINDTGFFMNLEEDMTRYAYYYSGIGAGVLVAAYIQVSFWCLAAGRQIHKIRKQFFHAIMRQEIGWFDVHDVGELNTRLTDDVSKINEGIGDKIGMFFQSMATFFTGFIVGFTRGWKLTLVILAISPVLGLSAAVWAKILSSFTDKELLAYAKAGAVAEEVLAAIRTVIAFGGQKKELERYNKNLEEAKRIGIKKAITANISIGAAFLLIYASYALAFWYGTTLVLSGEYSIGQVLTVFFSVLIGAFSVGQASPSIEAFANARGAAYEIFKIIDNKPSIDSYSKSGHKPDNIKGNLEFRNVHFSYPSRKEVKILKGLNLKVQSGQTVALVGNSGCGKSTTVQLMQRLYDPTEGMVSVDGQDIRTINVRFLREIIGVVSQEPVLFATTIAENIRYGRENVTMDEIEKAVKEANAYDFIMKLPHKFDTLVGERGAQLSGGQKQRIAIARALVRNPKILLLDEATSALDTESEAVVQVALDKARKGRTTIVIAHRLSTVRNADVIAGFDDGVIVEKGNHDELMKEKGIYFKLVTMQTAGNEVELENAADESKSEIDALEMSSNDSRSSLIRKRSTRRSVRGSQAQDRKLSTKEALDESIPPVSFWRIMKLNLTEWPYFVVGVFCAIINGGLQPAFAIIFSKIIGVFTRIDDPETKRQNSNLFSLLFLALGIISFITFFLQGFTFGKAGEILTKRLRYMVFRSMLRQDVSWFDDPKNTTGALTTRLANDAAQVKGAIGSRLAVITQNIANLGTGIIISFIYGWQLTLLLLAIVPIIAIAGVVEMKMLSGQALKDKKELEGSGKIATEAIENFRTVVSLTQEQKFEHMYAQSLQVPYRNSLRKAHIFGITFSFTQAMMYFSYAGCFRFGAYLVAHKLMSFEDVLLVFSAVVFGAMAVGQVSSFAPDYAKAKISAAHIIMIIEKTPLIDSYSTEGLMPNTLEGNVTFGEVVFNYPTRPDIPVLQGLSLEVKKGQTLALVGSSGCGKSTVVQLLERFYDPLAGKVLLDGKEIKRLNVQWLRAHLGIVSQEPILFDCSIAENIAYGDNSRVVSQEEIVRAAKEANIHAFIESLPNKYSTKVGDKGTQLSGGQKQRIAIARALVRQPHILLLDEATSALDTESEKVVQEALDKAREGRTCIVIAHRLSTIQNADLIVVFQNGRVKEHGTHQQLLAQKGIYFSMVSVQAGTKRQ
# [6] = test system: HCT116 cells; assay: Phospho-AKT levels by western blotting; assay type: cell-based, human; details: for IC50: Homo sapiens, HCT-116
# [7] = test system: HCT116 cells; assay: Acetylated PTEN and PTEN expression; assay type: cell-based, human
# Protocol: FIG. 12. HDAC-C1A treatment is associated with an increase of phopsho-AKT that can be reversed by PI3K/AKT/mTOR inhibitors. […] Similarly, Phospho-Pras 40 seems to increase following treatment with HDAC-C1A. Densitometry data could reinforce this statement (ratio between the total form and the Phospho form of Pras40 that decreases at 24 hours). […] No difference could be seen in endometrial cancer cell line, […]. C. […] E. BEZ-235 can fully reverse the increase of Phospho-AKT mediated by HDAC-C1A in HCT-116 cells. BEZ-235 and HDAC-C1A were co-incubated at the indicated time and concentrations.
# FIG. 17. A. Dose and time impact of Tubastatin A on acetylated form of tubulin and histones H3 and H4 and on phospho-AKT levels that could be reversed with BEZ-235 in HCT-116 cells. […] HCT116 were immunoprecipitation with PTEN and stained with HDAC1 or HDAC6, immunoprecipitation with HDAC6 and stained with PTEN. No HDAC1 could have been detected in contrast with HDAC6. There was no effect of the different inhibitors on the different protein levels.
# PTEN protein expression was not altered. In vivo, on the gene array, the mRNA levels of PTEN were not altered in HCT116 xenograft model following treatment with HDAC-C1A after 1 and 14 days when compared with vehicle treated group (FIG. 7).
# We have shown that HDAC-C1A is associated with increased acetylation of α-tubulin, acetyl HSP90 and acetyl PTEN with only a minor effect on the regulation of the genes (less than 0.7% of the genes have been de-regulated after 14 days of treatment in vivo). We believe that the acetylation of PTEN, via the inhibition of HDAC6, leads to an increase of P-AKT. […] No effect of BEZ235 could be seen on the acetylated status of α-tubulin and histones H3 and H4.
# [8] = test system: HCT116 tumours; assay: Phospho-AKT levels in HCT116 tumours; assay type: in vivo, mice; details: single injection 25 mg/kg
# [9] = test system: HCT116 human colon cancer xenograft; details: BEZ-235 alone 20 mg/kg/d
# [10] = Cytotoxicity of compounds of the invention (data not shown); assay type: cell-based
# Text: HDAC-C1B also appears to be a promising drug candidate.
# [11] = test system: A2780 cells; assay: Impact of glutathione co-incubation on survival; details: compound 1 μM
# [12] = in vitro; details: human, Caco-2
# [13] = target: MRP1 (Homo sapiens, UniProt P33527); assay: Impact of MRP1 on cytotoxicity, MK-571 pre-treatment in A549 cells
# MRP1, sequence (P33527 whole entry): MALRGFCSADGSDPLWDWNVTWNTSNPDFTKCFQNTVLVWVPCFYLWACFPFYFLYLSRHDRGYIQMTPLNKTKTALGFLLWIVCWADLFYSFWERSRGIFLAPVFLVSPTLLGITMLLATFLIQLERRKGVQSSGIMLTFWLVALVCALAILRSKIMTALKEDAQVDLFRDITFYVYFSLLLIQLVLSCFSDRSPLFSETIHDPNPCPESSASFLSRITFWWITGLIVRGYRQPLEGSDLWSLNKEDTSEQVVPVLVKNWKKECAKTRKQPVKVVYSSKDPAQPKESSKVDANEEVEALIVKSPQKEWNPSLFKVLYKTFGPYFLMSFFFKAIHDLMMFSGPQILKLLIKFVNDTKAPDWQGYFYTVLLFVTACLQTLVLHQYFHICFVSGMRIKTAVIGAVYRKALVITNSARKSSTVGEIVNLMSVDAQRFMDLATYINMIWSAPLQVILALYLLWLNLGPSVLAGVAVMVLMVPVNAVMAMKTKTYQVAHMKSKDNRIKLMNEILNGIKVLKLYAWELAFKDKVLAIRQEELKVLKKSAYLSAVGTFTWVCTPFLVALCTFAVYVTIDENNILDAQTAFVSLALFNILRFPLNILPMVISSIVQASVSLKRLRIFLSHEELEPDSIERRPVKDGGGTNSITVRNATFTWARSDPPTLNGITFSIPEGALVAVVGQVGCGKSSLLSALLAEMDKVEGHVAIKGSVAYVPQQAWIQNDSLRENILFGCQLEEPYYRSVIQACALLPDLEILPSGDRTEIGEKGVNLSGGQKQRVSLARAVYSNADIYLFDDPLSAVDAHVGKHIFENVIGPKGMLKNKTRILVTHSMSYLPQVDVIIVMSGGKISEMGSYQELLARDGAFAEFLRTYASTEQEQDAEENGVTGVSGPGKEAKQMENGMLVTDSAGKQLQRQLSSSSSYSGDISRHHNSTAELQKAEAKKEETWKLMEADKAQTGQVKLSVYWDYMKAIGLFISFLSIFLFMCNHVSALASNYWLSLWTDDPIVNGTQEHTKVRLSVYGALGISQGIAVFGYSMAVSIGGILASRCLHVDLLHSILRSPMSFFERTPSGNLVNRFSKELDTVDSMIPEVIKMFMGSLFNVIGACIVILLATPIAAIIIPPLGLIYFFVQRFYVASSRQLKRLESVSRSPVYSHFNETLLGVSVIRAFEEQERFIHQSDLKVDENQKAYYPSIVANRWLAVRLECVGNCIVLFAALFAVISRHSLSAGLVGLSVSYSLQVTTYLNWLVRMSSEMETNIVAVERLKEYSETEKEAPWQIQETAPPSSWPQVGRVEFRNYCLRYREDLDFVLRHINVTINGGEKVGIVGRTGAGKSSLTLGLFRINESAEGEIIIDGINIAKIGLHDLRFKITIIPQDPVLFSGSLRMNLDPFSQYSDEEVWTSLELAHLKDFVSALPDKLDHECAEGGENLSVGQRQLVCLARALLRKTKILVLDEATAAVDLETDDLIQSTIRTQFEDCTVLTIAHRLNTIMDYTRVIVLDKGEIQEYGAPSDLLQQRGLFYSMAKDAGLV
# Protocol: The impact of ABC transporters on the cytotoxicity of HDAC-C1A was assessed using cell lines with differential expression of the ABC transporters and by using inhibitors.
# [14] = test system: HCT116 cells; assay: Acetylation biomarkers by western blotting (with washout); assay type: cell-based, human
# Protocol: FIG. 1. HDAC-C1A irreversible activity. A. […] inhibitory activity of HDAC-C1A was tested using HeLa nuclear extracts and compared to the negative (reversible) control HDAC-C1B. B Growth inhibitory effect of the different compounds in HCT-116 cells at indicated time and compared to growth inhibitory after 72 hours of incubation.
# HSP90 protein expression was not altered (FIG. 2).
# [15] = homologous recombination repair
compound,measurement,setting,value
O=c1[nH]cc(F)c(=O)[nH]1 [5FU],combination effect with HDAC-C1A on growth inhibition,"[1]; HCT116, 72 hours",additive effect
"O=C(O)CCCc1ccc(N(CCCl)CCCl)cc1 [chlorambucil, reference compound]",sensitivity (GI50 ratio) of cells deficient in XRCC3 vs proficient,[2]; [15],7.8
same,"sensitivity (GI50 ratio, fold) of cells deficient in XRCC2 vs proficient",[2]; [15],> 100
same,"sensitivity (GI50 ratio, fold) of cells deficient in XRCC5 vs proficient",[2]; non homologous end joining,> 100
same,sensitivity (GI50 ratio) of cells deficient in ERCC1 vs proficient,[2]; nucleotide excision repair,> 100
same,impact of BSO on growth inhibition (GI50 ratio),[3],8.5
O=C1c2c(O)ccc(O)c2C(=O)c2c(NCCNCCO)ccc(NCCNCCO)c21 [mitoxantrone],fold resistance (GI50 ratio) MCF7-MX vs parental MCF7,[4],120 fold
same,reversal of resistance by FTC in MCF7-MX cells,[4],70 fold
CC(C)C[C@H](NC(=O)[C@H](Cc1ccccc1)NC(=O)c1cnccn1)B(O)O [bortezomib],combination effect with HDAC-C1A on growth inhibition,"[1]; HCT116, 72 hours",Synergistic effect
COc1ccc(C2=N[C@@H](c3ccc(Cl)cc3)[C@@H](c3ccc(Cl)cc3)N2C(=O)N2CCNC(=O)C2)c(OC(C)C)c1 [Nutlin-3],combination effect with HDAC-C1A on growth inhibition,"[1]; HCT116, 72 hours",additive effect
CC[C@]1(O)C[C@@H]2CN(CCc3c([nH]c4ccccc34)[C@@](C(=O)OC)(c3cc4c(cc3OC)N(C)[C@H]3[C@@](O)(C(=O)OC)[C@H](OC(C)=O)[C@]5(CC)C=CCN6CC[C@]43[C@@H]65)C2)C1 [vinblastine],fold resistance (GI50 ratio) P-gp over-expressing 3T3 vs parental,[5],> 100 fold
CN1CCc2c(c3ccccc3n2Cc2ccc(C(=O)NO)cc2)C1 [Tubastatin A],P-AKT,[6]; Tubastatin A alone,time dependent increase
same,acetylated form of PTEN,[7]; 24 hours of incubation,dose dependent increase
same,concentration of LY-294002 needed to synergise,[1],0.1 µM
same,combination effect with inhibitors of the PI3K/AKT/mTOR pathway,"[1]; HCT116, 72 hours",synergises as well
Cn1c(=O)n(-c2ccc(C(C)(C)C#N)cc2)c2c3cc(-c4cnc5ccccc5c4)ccc3ncc21 [BEZ-235],P-AKT in tumours,[8]; 2 hours after treatment,Persistent inhibition
same,P-AKT in tumours,[8]; by 30 minutes,rapid down-regulation
same,P-AKT in tumours,[8]; from 6 hours post treatment,partial recovery to basal levels
same,TGD2x,[9],3.4 ± 1.9 days
same,TGI,[9],21%
same,"P-AKT levels, single agent",[6],dose dependent decrease
same,IC50,"[6]; 4 hours treatment, read-out: IC50 for inhibition of P-AKT",0.01 µM
same,IC50,"[6]; added to Tubastatin A, read-out: IC50 for reversal of Tubastatin A-induced P-AKT",0.01 µM
same,IC50,"[6]; combined with 10 μM HDAC-C1A, read-out: IC50 for P-AKT when combined with HDAC-C1A",0.05 µM
same,effect on acetylated status of α-tubulin and histones H3 and H4,[6]; added to Tubastatin A,No effect
same,reversal of the increase of Phospho-AKT mediated by HDAC-C1A,[6]; co-incubated with HDAC-C1A,fully reverse
same,combination effect with HDAC-C1A on growth inhibition,"[1]; HCT116, 72 hours",Synergistic effect
CCN(CC)c1ccc(S(=O)(=O)Nc2ccc(/C=C(C)/C=C/C(=O)NO)cc2)cc1 [HDAC-C1B],cytotoxic potency relative to HDAC-C1A,[10],approximately 1.5 fold
CN(C)CC[C@H](CSc1ccccc1)Nc1ccc(S(=O)(=O)NC(=O)c2ccc(N3CCN(Cc4ccccc4-c4ccc(Cl)cc4)CC3)cc2)cc1[N+](=O)[O-] [ABT-737],combination effect with HDAC-C1A on growth inhibition,"[1]; HCT116, 72 hours",Synergistic effect
"O=C(CCCCCCC(=O)Nc1ccccc1)NO [SAHA, suberanoyl hydroxamic acid, reference compound]",effect of GSH on cytotoxicity,[11],antagonistic effect
same,Papp A→B,[12],140 nm/s
same,effect on P-AKT,[6]; 10 μM,no effect
same,substrate of MRP1,[13],non-substrates
same,acetyl form of PTEN,"[7]; 4 h and 24 h, 1 μM and 10 μM",no effect
same,concentration of LY-294002 needed to synergise,[1],greater than 4 μM
same,combination effect with rapamycin at ED50,[1]; concentrations below 7.5 μM,antagonistic effect
same,acetylation markers at low concentration and early time point,[14]; 1 μM and 4 hours,opposite
same,"acetylation of histone H3, H4 and α-tubulin after washout","[14]; treatment 4 hours, then washout",lost by 4 h
